Results published in the supplement of paper PMC10307832.

Legend:
Assay in all cases: relative viability (nuclei count vs DMSO), 5 days (fraction); higher = more cells survive
[1] = compound: NCC(=O)Nc1ccc(-n2nc(C(F)(F)F)cc2-c2ccc3c(ccc4ccccc43)c2)cc1 + O=C(CCCCCCC(=O)Nc1ccccc1)NO [Vorinostat] (partner 1 µM)
Summary of the method: (§1)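 Lung cancer cell lines were seeded in 1536-well plates and dosed by pin tool the next day, with either a single drug or a fixed anchor-drug dose combined with five library-drug doses (not always all listed) spaced in √10 steps. Five days later, one step fixed the cells and stained their nuclei (final 0.05% Triton X-100, 1% formaldehyde, 1 ug/ml Hoechst), and nuclei were counted on 4× images. Relative viability is the nuclei count in treated wells divided by the count in vehicle wells, and each value is the median of duplicate plates.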

[2] = compound: NCC(=O)Nc1ccc(-n2nc(C(F)(F)F)cc2-c2ccc3c(ccc4ccccc43)c2)cc1 + Cc1cc(Nc2cc(N3CCN(C)CC3)nc(Sc3ccc(NC(=O)C4CC4)cc3)n2)n[nH]1 [Tozasertib] (partner 0.1 µM)
Summary of the method: as §1

[3] = compound: C1CSC2=C(C(=O)N1)SC3=C2C=C(C=C3)O [kb NB 142-70] + C[C@@H](Oc1cc(-c2cnn(C3CCNCC3)c2)cnc1N)c1c(Cl)ccc(F)c1Cl [Crizotinib] (partner 1 µM)
Summary of the method: as §1

[4] = compound: C1CSC2=C(C(=O)N1)SC3=C2C=C(C=C3)O [kb NB 142-70] + CC(=O)Nc1cccc(-n2c(=O)n(C3CC3)c(=O)c3c(Nc4ccc(I)cc4F)n(C)c(=O)c(C)c32)c1 [Trametinib] (partner 0.02 µM)
Summary of the method: as §1

[5] = compound: C1CSC2=C(C(=O)N1)SC3=C2C=C(C=C3)O [kb NB 142-70] + Nc1ncn([C@H]2C[C@H](O)[C@@H](CO)O2)c(=O)n1 [Decitabine] (partner 2 µM)
Summary of the method: as §1

| Cell Line | relative viability ([1]; first compound 0.02 µM) | relative viability ([1]; first compound 0.06325 µM) | relative viability ([1]; first compound 0.2 µM) | relative viability ([1]; first compound 0.6325 µM) | relative viability ([1]; first compound 2 µM) | relative viability ([2]; first compound 0.02 µM) | relative viability ([2]; first compound 0.06325 µM) | relative viability ([2]; first compound 0.2 µM) | relative viability ([2]; first compound 0.6325 µM) | relative viability ([2]; first compound 2 µM) | relative viability ([3]; first compound 0.1 µM) | relative viability ([3]; first compound 1 µM) | relative viability ([3]; first compound 3.162 µM) | relative viability ([4]; first compound 0.1 µM) | relative viability ([4]; first compound 1 µM) | relative viability ([4]; first compound 3.162 µM) | relative viability ([5]; first compound 0.1 µM) | relative viability ([5]; first compound 1 µM) | relative viability ([5]; first compound 3.162 µM) |
| --- | --- | --- | --- | --- | --- | --- | --- | --- | --- | --- | --- | --- | --- | --- | --- | --- | --- | --- | --- |
| NCI-H2126 | 0.78 | 0.858 | 0.768 | 0.756 | 0.773 | 0.842 | 0.892 | 0.874 | 0.864 | 0.852 | 1.04 | 1.06 | 0.983 | 0.593 | 0.534 | 0.473 | 0.555 | 0.616 | 0.571 |
| HOP-62 | 0.536 | 0.534 | 0.668 | 0.501 | 0.7 | 0.364 | 0.409 | 0.37 | 0.409 | 0.365 | 0.869 | 1.02 | 1.03 | 0.401 | 0.427 | 0.545 | 0.217 | 0.203 | 0.226 |
| NCI-H520 | 0.631 | 0.779 | 0.873 | 0.77 | 0.763 | 0.492 | 0.425 | 0.402 | 0.424 | 0.398 | 0.869 | 0.825 | 0.507 | 0.69 | 0.618 | 0.386 | 0.506 | 0.43 | 0.357 |
| NCI-H1755 | 0.758 | 0.824 | 0.788 | 0.768 | 0.833 | 0.626 | 0.596 | 0.6 | 0.591 | 0.555 | 0.852 | 0.923 | 0.915 | 0.814 | 0.742 | 0.836 | 0.7 | 0.729 | 0.727 |
| NCI-H2023 | 0.619 | 0.854 | 0.58 | 0.653 | 0.621 | 0.326 | 0.394 | 0.441 | 0.387 | 0.321 | 0.699 | 0.761 | 0.551 | 0.52 | 0.559 | 0.566 | 0.218 | 0.213 | 0.149 |
| NCI-H2009 | 0.698 | 0.741 | 0.792 | 0.805 | 0.766 | 0.821 | 0.715 | 0.772 | 0.692 | 0.653 | 1 | 1.12 | 0.652 | 0.284 | 0.29 | 0.263 | 0.371 | 0.38 | 0.375 |
